In US8129355B2, “Ketone ligands for modulating the expression of exogenous genes via an ecdysone receptor complex” (priority 2002, dated 2012):
Where “and” joins values, the source holds several entries; their conditions need not be identical. Equal entries are not always repeated.

What was measured:
[1] = molecular target: T1, GAL4 DBD (1-147)-CfEcR(DEF)/VP16AD-βRXREF-LmUSPEF (Choristoneura fumiferana, UniProt O77240); test: 27-63 assay: luciferase reporter gene expression in stable CHO cell clone 27-63; details: for Fold Induction Average, 27-63 Assay (33 μM): single dose 33 μM, RLU ligand treated / RLU DMSO treated cells; for CC50: read-out: 27-63 LC50, average, dose response; for CC50 / EC50: three-parameter logistic model; for EC50: 27-63 EC50 (μM), CHO clone 27-63, luciferase reporter 48 h after treatment, dose response 8 concentrations 33 μM to 0.01 μM
T1 sequence (O77240 191-513): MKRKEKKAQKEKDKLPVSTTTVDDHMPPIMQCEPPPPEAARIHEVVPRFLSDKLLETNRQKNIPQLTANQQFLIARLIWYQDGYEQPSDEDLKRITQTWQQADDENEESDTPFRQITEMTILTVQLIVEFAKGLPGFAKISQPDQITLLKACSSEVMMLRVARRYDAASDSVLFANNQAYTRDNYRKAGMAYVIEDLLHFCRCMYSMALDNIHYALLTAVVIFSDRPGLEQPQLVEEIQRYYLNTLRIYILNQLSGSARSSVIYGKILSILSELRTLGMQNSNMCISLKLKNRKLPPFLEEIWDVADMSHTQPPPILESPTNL
T1 sequence (P28702 296-455 partner limits assumed): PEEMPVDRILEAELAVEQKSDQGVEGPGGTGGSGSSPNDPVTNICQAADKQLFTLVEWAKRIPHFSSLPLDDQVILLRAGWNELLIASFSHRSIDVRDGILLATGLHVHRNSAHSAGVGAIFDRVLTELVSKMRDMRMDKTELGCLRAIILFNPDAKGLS
Text: GAL4 DBD (1-147)-CfEcR(DEF)/VP16AD-βRXREF-LmUSPEF: The wild-type D, E, and F domains from spruce budworm Choristoneura fumiferana EcR (“CfEcR-DEF”; SEQ ID NO: 1) were fused to a GAL4 DNA binding domain (“Gal4 DBD1-147”; nucleotides 31 to 471 of SEQ ID NO: 2) and placed under the control of a phosphoglycerate kinase promoter (“PGK”; SEQ ID NO: 3). Helices 1 through 8 of the EF domains from Homo sapiens RXRβ and helices 9 through 12 of the EF domains of Locusta migratoria Ultraspiracle Protein (“HsRXRβ-EF-LmUSP-EF”; SEQ ID NO: 4) were fused to the transactivation domain from VP16 (“VP16AD”; SEQ ID NO: 5) and placed under the control of an elongation factor-1α promoter (“EF-1α”; SEQ ID NO: 6). Five consensus GAL4 response element binding sites (“5XGAL4RE”; comprising 5 copies of a GAL4RE comprising SEQ ID NO: 7) were fused to a synthetic TATA minimal promoter (SEQ ID NO: 8) and placed upstream of the luciferase reporter gene (SEQ ID NO: 9).
CHO cells were transiently transfected with transcription cassettes for GAL4 DBD (1-147) CfEcR(DEF) and for VP16AD βRXREF-LmUSPEF controlled by ubiquitously active cellular promoters (PGK and EF-1α, respectively) on a single plasmid. Stably transfected cells were selected by Zeocin resistance. Individually isolated CHO cell clones were transiently transfected with a GAL4 RE-luciferase reporter (pFR Luc). 27-63 clone was selected using Hygromycin.
(§1) Cells were trypsinized and diluted to a concentration of 2.5×10^4 cells mL. 100 μL of cell suspension was placed in each well of a 96 well plate and incubated at 37° C. under 5% CO2 for 24 h. Ligand stock solutions were prepared in DMSO and diluted 300 fold for all treatments. Dose response testing consisted of 8 concentrations ranging from 33 μM to 0.01 μM.
(§2) Luciferase reporter gene expression was measured 48 h after cell treatment using Bright-Glo™ Luciferase Assay System from Promega (E2650). Luminescence was detected at room temperature using a Dynex MLX microtiter plate luminometer.
(§3) Fold inductions were calculated from single dose testing by dividing relative light units (RLU) in ligand treated cells by RLU in DMSO treated cells. BC50s were calculated from dose response data using a three-parameter logistic model.

[2] = molecular target: T2, Bombyx mori EcR (VP16 fusion, switch construct CVBE) with 6XEcRE LacZ reporter (Bombyx mori, UniProt P49881); test: Z3 assay: β-galactosidase (LacZ) reporter gene fold induction in stably transformed human 293 kidney cells (clone Z3); format: cell-based; details: for Fold Induction Average, Z3 Assay (33 μM): single dose 33 μM, ligand treated / DMSO treated cells; for CC50: average, dose response, three-parameter logistic model, read-out: Z3 LC50; for Z3 Rel Max FI: maximum fold induction at any concentration relative to that of GS-E ligand
T2 construct: expressed in transfected cells; host or cells: Human 293 kidney (HEK-293) cells, retrovirally infected, clone Z3
T2 sequence (P49881 86-606 limits assumed): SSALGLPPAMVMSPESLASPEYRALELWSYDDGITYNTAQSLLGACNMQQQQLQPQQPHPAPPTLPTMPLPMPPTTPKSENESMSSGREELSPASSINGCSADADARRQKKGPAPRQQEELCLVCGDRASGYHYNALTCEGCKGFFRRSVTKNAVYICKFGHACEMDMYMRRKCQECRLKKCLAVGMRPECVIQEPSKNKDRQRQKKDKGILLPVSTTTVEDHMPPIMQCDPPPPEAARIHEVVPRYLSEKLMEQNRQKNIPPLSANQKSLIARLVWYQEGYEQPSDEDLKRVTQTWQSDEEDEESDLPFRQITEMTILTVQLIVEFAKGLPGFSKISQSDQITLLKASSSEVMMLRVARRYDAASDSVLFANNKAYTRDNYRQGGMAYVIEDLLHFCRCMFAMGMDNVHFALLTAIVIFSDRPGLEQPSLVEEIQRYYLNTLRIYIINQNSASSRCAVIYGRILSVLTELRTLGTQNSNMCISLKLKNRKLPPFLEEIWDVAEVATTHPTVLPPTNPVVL
T2 sequence (P19793 1-462 partner): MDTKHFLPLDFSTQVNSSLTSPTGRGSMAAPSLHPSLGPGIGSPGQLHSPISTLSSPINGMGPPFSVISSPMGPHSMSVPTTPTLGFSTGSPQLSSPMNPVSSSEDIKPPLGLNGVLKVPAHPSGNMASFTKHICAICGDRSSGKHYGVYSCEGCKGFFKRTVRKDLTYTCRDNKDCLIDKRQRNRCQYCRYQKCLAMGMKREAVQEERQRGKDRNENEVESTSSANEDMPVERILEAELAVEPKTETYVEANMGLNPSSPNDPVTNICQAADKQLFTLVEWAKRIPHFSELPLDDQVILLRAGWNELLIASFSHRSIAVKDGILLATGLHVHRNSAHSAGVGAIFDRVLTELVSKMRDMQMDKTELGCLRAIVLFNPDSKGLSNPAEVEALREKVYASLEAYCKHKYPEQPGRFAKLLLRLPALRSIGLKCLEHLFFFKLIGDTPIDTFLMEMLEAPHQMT
Text: Dr. F. Gage provided a population of stably transformed cells containing CVBE and 6XEcRE as described in Suhr, S. T., Gil, E. B., Senut M. C., Gage, F. H. (1998) Proc. Natl. Acad. Sci. USA 95, 7999-804. Human 293 kidney cells, also referred to as HEK-293 cells, were sequentially infected with retroviral vectors encoding first the switch construct CVBE, and subsequently the reporter construct 6XEcRE Lac Z. The switch construct contained the coding sequence for amino acids 26-546 from Bombyx mori EcR (BE) (Iatrou) inserted in frame and downstream of the VP16 transactivation domain (VBE). A synthetic ATG start codon was placed under the control of cytomegalovirus (CVBE) immediate early promoter and flanked by long terminal repeats (LTR). The reporter construct contained six copies of the ecdysone response element (EcRE) binding site placed upstream of LacZ and flanked on both sides with LTR sequences (6XEcRE).
Dilution cloning was used to isolate individual clones. Clones were selected using 450 ug/mL G418 and 100 ng/mL puromycin. Individual clones were evaluated based on their response in the presence and absence of test ligands. Clone Z3 was selected for screening and SAR purposes.
Human 293 kidney cells stably transformed with CVBE and 6XEcRE lack were maintained in Minimum Essential Medium (Mediates, 10-010-CV) containing 10% FBS (Life Technologies, 26140-087), […] G418 (Mediates, 30-234-CR), and […] (Sigma, P-7255), at 37° C. in an atmosphere containing 5% CO2 and were subculture when they reached 75% confluence.
Z3 cells were seeded into 96-well tissue culture plates at a concentration of 2.5×10^3 cells per well and incubated at 37° C. in 5% CO2 for twenty-four hours. Stock solutions of ligands were prepared in DMSO. Ligand stock solutions were diluted 100 fold in media and 50 μL of this diluted ligand solution (33 μM) was added to cells. The final concentration of DMSO was maintained at […] in both controls and treatments.
Reporter gene expression was evaluated 48 hours after treatment of cells, β-galactosidase activity was measured using Gal Screen™ bioluminescent reporter gene assay system from Tropix (GSY1000).
Flanking both constructs are long terminal repeats, G418 and puromycin are selectable markers, CMV is the cytomegalovirus promoter, VBE is coding sequence for amino acids 26-546 from Bombyx mori EcR inserted downstream of the VP16 transactivation domain, 6×EcRE is six copies of the ecdysone response element, lacZ encodes for the reporter enzyme β-galactosidase. Suhr, S. T., Gil, E. B., Senut M. C., Gage, F. H. (1998) Proc. Natl. Acad. Sci. USA 95, 7999-804. Swevers, L., Drevet, J. R., Lunke, M. D., Iatrou, K. (1995) Insect Biochem. Mol. Biol. 25, 857-866.

[3] = molecular target: T3, GAL4 DBD-CfEcR(DEF)/VP16AD-MmRXRE (Choristoneura fumiferana, UniProt O77240); test: cell-based
T3 sequence (O77240 1-513): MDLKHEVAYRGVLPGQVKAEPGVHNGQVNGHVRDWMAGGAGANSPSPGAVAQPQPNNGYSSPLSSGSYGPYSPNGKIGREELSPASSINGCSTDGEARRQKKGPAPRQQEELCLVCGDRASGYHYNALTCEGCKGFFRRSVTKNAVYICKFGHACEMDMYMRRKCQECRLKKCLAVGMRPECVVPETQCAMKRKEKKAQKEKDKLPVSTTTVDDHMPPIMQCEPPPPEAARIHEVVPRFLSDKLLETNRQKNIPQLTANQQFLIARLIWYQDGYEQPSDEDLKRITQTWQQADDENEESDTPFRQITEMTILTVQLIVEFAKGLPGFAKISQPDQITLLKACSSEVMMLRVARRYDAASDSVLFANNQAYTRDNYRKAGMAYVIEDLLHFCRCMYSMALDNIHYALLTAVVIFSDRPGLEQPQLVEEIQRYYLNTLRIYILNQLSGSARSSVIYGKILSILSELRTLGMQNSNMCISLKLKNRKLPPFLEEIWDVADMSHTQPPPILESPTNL
Text: GAL4 DBD-CfEcR(DEF)/VP16AD-MmRXRE: The wild-type D, E, and F domains from spruce budworm Choristoneura fumiferana EcR (“CfEcR-DEF”; SEQ ID NO: 1) were fused to a GAL4 DNA binding domain (“Gal4 DBD1-147”; nucleotides 31 to 471 of SEQ ID NO: 2) and placed under the control of the SV40e promoter of pM vector (PT3119-5, Clontech, Palo Alto, Calif.). The D and E domains from Mus Musculus RXR (“MmRXR-DE”; SEQ ID NO: 10) were fused to the transactivation domain from VP16 (“VP16AD”; SEQ ID NO: 5) and placed under the control of the SV40e promoter of the pVP16 vector (PT3127-5, Clontech, Palo Alto, Calif.).
CHO cells were transienty transfected with transcription cassettes for GAL4 DBD-CfEcR(DEF) and for VP16AD-MmRXRE controlled by SV40e promoters. Stably transfected cells were selected using Hygromycin. Individually isolated CHO cell clones were transiently transfected with a GAL4 RE-luciferase reporter (pMR-Luc, Stratagene, La Jolla, Calif.). The 13B3 clone was selected using Zeocin.
as §1, §2, §3

[4] = maximum fold induction at any concentration relative to that of GS-E ligand
[5] = maximum fold induction at any concentration relative to maximum fold induction of GS™-E ligand, CHO clone 27-63

COc1cccc(C(=O)NC2(C(=O)c3cc(C)cc(C)c3)CCCN(C(=O)OC(C)(C)C)C2)c1C (racemic) [Example 146]
Fold Induction Average, 27-63 Assay (33 μM) [1]: 1
Fold Induction Average, Z3 Assay (33 μM) [2]: 1

COc1cccc(C(=O)NC2(C(=O)c3cc(C)cc(C)c3)CCCNC2)c1C (racemic) [Example 148]
Fold Induction Average, 27-63 Assay (33 μM) [1]: 2
Fold Induction Average, Z3 Assay (33 μM) [2]: 7

COc1cccc(C(=O)NC2(C(=O)c3cc(C)cc(C)c3)CCCN(C(C)=O)C2)c1C (racemic) [Example 153]
Fold Induction Average, 27-63 Assay (33 μM) [1]: 1
Fold Induction Average, Z3 Assay (33 μM) [2]: 3

COc1cccc(C(=O)NC2(C(=O)c3cc(C)cc(C)c3)CCCN(S(C)(=O)=O)C2)c1C (racemic) [Example 155]
Fold Induction Average, 27-63 Assay (33 μM) [1]: 2
Fold Induction Average, Z3 Assay (33 μM) [2]: 4

CCNC(=O)N1CCCC(NC(=O)c2cccc(OC)c2C)(C(=O)c2cc(C)cc(C)c2)C1 (racemic) [Example 160]
Fold Induction Average, 27-63 Assay (33 μM) [1]: 1
Fold Induction Average, Z3 Assay (33 μM) [2]: 1

CCc1c(C(=O)NC2(C(=O)c3cc(C)cc(C)c3)CCCCC2)ccc2c1OCCO2 [Example 80]
27-63 Rel Max FI [1, 4]: 0.91
CC50 [1]: 390 nM
CC50 [2]: 740 nM
Z3 Rel Max FI [2]: 0.89

Cc1cc(C)cc(C(=O)C2(NC(=O)c3ccc4c(c3C)OCO4)CCCCC2)c1 [Example 81]
27-63 Rel Max FI [1, 4]: 0.91
CC50 [1]: 3220 nM
CC50 [2]: 3680 nM
Z3 Rel Max FI [2]: 0.81

Cc1cc(C)cc(C(=O)C2(NC(=O)c3ccc4c(c3)OCCO4)CCCCC2)c1 [Example 82]
27-63 Rel Max FI [1, 4]: 0.84
CC50 [1]: 1780 nM
CC50 [2]: 1990 nM
Z3 Rel Max FI [2]: 0.79

COc1ccccc1C(=O)NC(C)(C)C(=O)c1cc(C)cc(C)c1 [Example 119]
Fold Induction Average, 13B3 Assay (33 μM) [3]: 0
Fold Induction Average, Z3 Assay (33 μM) [2]: 1

Cc1cc(C)cc(C(=O)C2(NS(=O)(=O)c3ccc4c(c3)COCO4)CCCCC2)c1 [Example 179]
EC50 [1]: 6.53 µM
27-63 Rel Max FI [1, 5]: 0.28

Cc1ccc(S(=O)(=O)NC2(C(=O)c3cc(C)cc(C)c3)CCCC2)cc1 [Example 180]
EC50 [1]: 1.24 µM and 1.8 µM
27-63 Rel Max FI [1, 5]: 0.86 and 1.00
